According to patent publication EP3807270B1, “NOVEL HETEROARYL HETEROCYCLYL COMPOUNDS FOR THE TREATMENT OF AUTOIMMUNE DISEASE” (F. Hoffmann-La Roche AG, priority 2018, dated 2019):

biological target: T1, hTLR7 (Homo sapiens, UniProt Q9NYK1); assay: HEK293-Blue-hTLR-7 cells assay (SEAP reporter, R848 stimulation); assay type: cell-based; design: host or cells: HEK293 (HEK-Blue); conditions: HEK293-Blue-hTLR7 cells, R848, 20 hrs; read-out: HEK/hTLR7 IC50
T1 sequence (Q9NYK1 27-1049): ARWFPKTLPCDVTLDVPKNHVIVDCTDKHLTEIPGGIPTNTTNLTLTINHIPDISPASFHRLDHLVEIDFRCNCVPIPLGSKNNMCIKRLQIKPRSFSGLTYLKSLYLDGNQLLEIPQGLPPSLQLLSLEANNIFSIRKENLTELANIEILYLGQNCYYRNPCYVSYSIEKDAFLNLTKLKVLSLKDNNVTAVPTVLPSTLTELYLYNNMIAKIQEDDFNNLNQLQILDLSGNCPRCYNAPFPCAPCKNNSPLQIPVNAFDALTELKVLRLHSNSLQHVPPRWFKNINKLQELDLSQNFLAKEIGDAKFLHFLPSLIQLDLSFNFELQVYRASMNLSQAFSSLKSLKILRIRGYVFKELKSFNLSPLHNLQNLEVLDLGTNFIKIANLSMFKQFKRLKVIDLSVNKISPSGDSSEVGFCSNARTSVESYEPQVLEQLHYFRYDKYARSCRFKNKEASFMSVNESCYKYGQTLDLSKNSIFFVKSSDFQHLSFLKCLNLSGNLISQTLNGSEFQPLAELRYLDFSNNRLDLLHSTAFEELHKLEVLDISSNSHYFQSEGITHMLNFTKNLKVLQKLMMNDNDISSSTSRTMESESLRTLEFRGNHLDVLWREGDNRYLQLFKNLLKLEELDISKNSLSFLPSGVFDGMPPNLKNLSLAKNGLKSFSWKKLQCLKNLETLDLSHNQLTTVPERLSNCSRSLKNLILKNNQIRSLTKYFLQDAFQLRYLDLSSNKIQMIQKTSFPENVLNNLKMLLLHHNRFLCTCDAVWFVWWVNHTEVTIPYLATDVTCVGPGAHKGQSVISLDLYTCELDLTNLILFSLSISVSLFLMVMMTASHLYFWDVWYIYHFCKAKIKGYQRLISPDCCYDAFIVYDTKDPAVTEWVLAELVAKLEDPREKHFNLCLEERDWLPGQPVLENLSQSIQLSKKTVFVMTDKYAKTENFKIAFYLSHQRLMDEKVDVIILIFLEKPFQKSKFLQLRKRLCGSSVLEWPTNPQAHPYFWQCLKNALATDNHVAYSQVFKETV
Excerpt: A stable HEK293-Blue-hTLR-7 cell line was purchased from InvivoGen (Cat.#: hkb-htlr7, San Diego, California, USA). These cells were originally designed for studying the stimulation of human TLR7 by monitoring the activation of NF-κB. A SEAP (secreted embryonic alkaline phosphatase) reporter gene was placed under the control of the IFN-β minimal promoter fused to five NF-κB and AP-1-binding sites. The SEAP was induced by activating NF-xB and AP-1 via stimulating HEK-Blue hTT,R7 cells with TLR7 ligands. Therefore, the reporter expression was declined by TLR7 antagonist under the stimulation of a ligand, such as R848 (Resiquimod), for incubation of 20 hrs. The cell culture supernatant SEAP reporter activity was determined using QUANTI-Blue™ kit (Cat.#: rep-qb1, Invivogen, San Diego, Ca, USA) at a wavelength of 640 nm, a detection medium that turns purple or blue in the presence of alkaline phosphatase.
HEK293-Blue-hTLR7 cells were incubated at a density of 250,000-450,000 cells/mL in a volume of 170 µL in a 96-well plate in Dulbecco's Modified Eagle's medium (DMEM) containing 4.5 g/L glucose, 50 U/mL penicillin, […], […], 2 mM L-glutamine, 10% (v/v) heat-inactivated fetal bovine serum with addition of 20 µL test compound in a serial dilution in the presence of final DMSO at 1% and 10 µL of 20uM R848 in above DMEM, perform incubation under 37 °C in a CO2 incubator for 20 hrs. Then 20 µL of the supernatant from each well was incubated with 180 µL Quanti-blue substrate solution at 37 °C for 2 hrs and the absorbance was read at 620-655 nm using a spectrophotometer. The signaling pathway that TLR7 activation leads to downstream NF-xB activation has been widely accepted, and therefore similar reporter assay was modified for evaluating TLR7 antagonist.

Structure (SMILES) | IC50 [nM]
C[C@@H]1CN(c2ccc(C#N)c3ncccc23)C[C@H](CN2CCN(c3ccc4c(n3)CCNC4)C[C@H](O)C2)O1 (single isomer, unassigned) [Example 35A] | 60
C[C@@H]1CN(c2ccc(C#N)c3ncccc23)C[C@H](CN2CCN(c3ccc4c(n3)CCNC4)C[C@@H](O)C2)O1 (single isomer, unassigned) [Example 35B] | 61
C[C@@H]1CN(c2ccc(C#N)c3ncccc23)C[C@H](CN2C[C@H]3CN(c4ccc5c(n4)CCNC5)CC[C@@H]32)O1 (single isomer, unassigned) [Example 54] | 6
C[C@@H]1CN(c2ccc(C#N)c3ncccc23)C[C@H](CN2C[C@H]3CN(c4ccc5c(n4)CCNC5)CC[C@H]32)O1 (single isomer, unassigned) [Example 55] | 4
C[C@@H]1CN(c2ccc(C#N)c3ncccc23)C[C@H](CN2CCN(c3ccc4c(n3)CN[C@H]4C)CC2)O1 (single isomer, unassigned) [Example 63] | 11
C[C@@H]1CN(c2ccc(C#N)c3ncccc23)C[C@H](CN2CCN(c3ccc4c(n3)CN[C@@H]4C)CC2)O1 (single isomer, unassigned) [Example 64] | 12
C[C@@H]1CN(c2ccc(C#N)c3ncccc23)C[C@H](CN2CCN(c3ccc4c(n3)[C@@H](C)NC4)CC2)O1 (single isomer, unassigned) [Example 65] | 7
C[C@@H]1CN(c2ccc(C#N)c3ncccc23)C[C@H](CN2CCN(c3ccc4c(n3)[C@H](C)NC4)CC2)O1 (single isomer, unassigned) [Example 66] | 14
C[C@@H]1CN(c2ccc(C#N)c3ncccc23)C[C@H](CN2CCN(c3cnc4c(c3)CN[C@H]4C)CC2)O1 (single isomer, unassigned) [Example 67] | 13
C[C@@H]1CN(c2ccc(C#N)c3ncccc23)C[C@H](CN2CCN(c3cnc4c(c3)CN[C@@H]4C)CC2)O1 (single isomer, unassigned) [Example 68] | 13
C[C@@H]1Cc2cc(N3CCN(C[C@H]4CN(c5ccc(C#N)c6ncccc56)C[C@@H](C)O4)CC3)ncc2CN1 (single isomer, unassigned) [Example 70] | 26
C[C@@H]1CN(c2ccc(C#N)c3ncccc23)C[C@H](CN2CCN(c3cc4c(cn3)CN[C@@H](C)C4)CC2)O1 (single isomer, unassigned) [Example 71] | 24
C[C@@H]1CN(c2ccc(C#N)c3ncccc23)C[C@H](CN2CCN(c3cc4c(cn3)[C@H](C)NCC4)CC2)O1 (single isomer, unassigned) [Example 72] | 13
C[C@@H]1CN(c2ccc(C#N)c3ncccc23)C[C@H](CN2CCN(c3cc4c(cn3)[C@@H](C)NCC4)CC2)O1 (single isomer, unassigned) [Example 73] | 17
C[C@@H]1CN(c2ccc(C#N)c3ncccc23)C[C@H](CN2CCN(c3cc4c(cn3)CCN[C@@H]4C)CC2)O1 (single isomer, unassigned) [Example 74] | 7
C[C@@H]1CN(c2ccc(C#N)c3ncccc23)C[C@H](CN2CCN(c3cc4c(cn3)CCN[C@H]4C)CC2)O1 (single isomer, unassigned) [Example 75] | 8

Structure (SMILES) | IC50 [nM]
C[C@@H]1CN(c2ccc(C#N)c3ncccc23)C[C@H](CN2CCN(c3cc4c(cn3)C[C@H](C)NC4)CC2)O1 (single isomer, unassigned) [Example 76] | 14
C[C@@H]1Cc2cnc(N3CCN(C[C@H]4CN(c5ccc(C#N)c6ncccc56)C[C@@H](C)O4)CC3)cc2CN1 (single isomer, unassigned) [Example 77] | 11
C[C@@H]1CN(c2ccc(C#N)c3nccnc23)C[C@H](CN2CCN(c3ccc4c(n3)CN[C@H]4C)CC2)O1 (single isomer, unassigned) [Example 78] | 5
C[C@@H]1CN(c2ccc(C#N)c3nccnc23)C[C@H](CN2CCN(c3ccc4c(n3)CN[C@@H]4C)CC2)O1 (single isomer, unassigned) [Example 79] | 8
C[C@@H]1CN(c2ccc(C#N)c3nccnc23)C[C@H](CN2CCN(c3cc4c(cn3)C[C@H](C)NC4)CC2)O1 (single isomer, unassigned) [Example 81] | 5
C[C@@H]1Cc2cnc(N3CCN(C[C@H]4CN(c5ccc(C#N)c6nccnc56)C[C@@H](C)O4)CC3)cc2CN1 (single isomer, unassigned) [Example 82] | 11
C[C@@H]1Cc2cc(N3CCN(C[C@H]4CN(c5ccc(C#N)c6nccnc56)C[C@@H](C)O4)CC3)ncc2CN1 (single isomer, unassigned) [Example 83] | 6
C[C@@H]1CN(c2ccc(C#N)c3nccnc23)C[C@H](CN2CCN(c3cc4c(cn3)CN[C@@H](C)C4)CC2)O1 (single isomer, unassigned) [Example 84] | 7
C[C@@H]1CN(c2ccc(C#N)c3nccnc23)C[C@H](CN2CCN(c3cc4c(cn3)[C@H](C)NCC4)CC2)O1 (single isomer, unassigned) [Example 85] | 5
C[C@@H]1CN(c2ccc(C#N)c3ncccc23)C[C@H](CN2CC3[C@H](C2)OCCN3c2ccc3c(n2)CCNC3)O1 (stereo in doubt) [Example 53, cis-5-[(2R,6S)-2-methyl-6-[[4-(5,6,7,8-tetrahydro-1,6-naphthyridin-2-yl)-2,3,4a,5,7,7a-hexahydropyrrolo[3,4-b][1,4]oxazin-6-yl]methyl]morpholin-4-yl]quinoline-8-carbonitrile] | 3
C[C@@H]1CN(c2ccc(C#N)c3ncccc23)C[C@H](CN2CCN(c3cccc4c3CNC4)CC2)O1 [Example 2, 5-[(2S,6R)-2-[(4-isoindolin-4-ylpiperazin-1-yl)methyl]-6-methyl-morpholin-4-yl] quinoline-8-carbonitrile] | 4
C[C@@H]1CN(c2ccc(C#N)c3ncccc23)C[C@H](CN2CCN(c3ccc4c(c3)CNC4)[C@@H](CO)C2)O1 [Example 4, 5-[(2S,6R)-2-[[(3R)-3-(hydroxymethyl)-4-isoindolin-5-yl-piperazin-1-yl]methyl]-6-methyl-morpholin-4-yl]quinoline-8-carbonitrile] | 64
C[C@@H]1CN(c2ccc(C#N)c3ncccc23)C[C@H](CN2CCN(c3ccc4c(c3)CCNC4)CC2)O1 [Example 5, 5-[(2R,6S)-2-methyl-6-[[4-(1,2,3,4-tetrahydroisoquinolin-6-yl)piperazin-1-yl]methyl]morpholin-4-yl]quinoline-8-carbonitrile] | 31
C[C@@H]1CN(c2ccc(C#N)c3ncccc23)C[C@H](CN2CCN(c3ccc4c(c3)CNC4)CC2)O1 [Example 7, 5-[(2S,6R)-2-[(4-isoindolin-5-ylpiperazin-1-yl)methyl]-6-methyl-morpholin-4-yl] quinoline-8-carbonitrile] | 39
C[C@@H]1CN(c2ccc(C#N)c3ncsc23)C[C@H](CN2CCN(c3cnc4c(c3)CNC4)CC2)O1 [Example 8, 7-[(2S,6R)-2-[[4-(6,7-dihydro-5H-pyrrolo[3,4-b]pyridin-3-yl)piperazin-1-yl]methyl]-6-methyl-morpholin-4-yl]-1,3-benzothiazole-4-carbonitrile] | 10
